In US9212182B2, “Bicyclic sulfonamide compounds as sodium channel inhibitors” (AMGEN INC., priority 2013, dated 2015):
pIC50: −log10 of the molar value.

Each compound was assayed against Nav 1.7 (Homo sapiens (Human), UniProt Q15858) (assay: in-vitro Nav 1.7 PX (IC50)). Conditions: in-vitro Nav 1.7 PX data.
Format: cell-based

Chain of Nav 1.7 (Q15858 whole entry): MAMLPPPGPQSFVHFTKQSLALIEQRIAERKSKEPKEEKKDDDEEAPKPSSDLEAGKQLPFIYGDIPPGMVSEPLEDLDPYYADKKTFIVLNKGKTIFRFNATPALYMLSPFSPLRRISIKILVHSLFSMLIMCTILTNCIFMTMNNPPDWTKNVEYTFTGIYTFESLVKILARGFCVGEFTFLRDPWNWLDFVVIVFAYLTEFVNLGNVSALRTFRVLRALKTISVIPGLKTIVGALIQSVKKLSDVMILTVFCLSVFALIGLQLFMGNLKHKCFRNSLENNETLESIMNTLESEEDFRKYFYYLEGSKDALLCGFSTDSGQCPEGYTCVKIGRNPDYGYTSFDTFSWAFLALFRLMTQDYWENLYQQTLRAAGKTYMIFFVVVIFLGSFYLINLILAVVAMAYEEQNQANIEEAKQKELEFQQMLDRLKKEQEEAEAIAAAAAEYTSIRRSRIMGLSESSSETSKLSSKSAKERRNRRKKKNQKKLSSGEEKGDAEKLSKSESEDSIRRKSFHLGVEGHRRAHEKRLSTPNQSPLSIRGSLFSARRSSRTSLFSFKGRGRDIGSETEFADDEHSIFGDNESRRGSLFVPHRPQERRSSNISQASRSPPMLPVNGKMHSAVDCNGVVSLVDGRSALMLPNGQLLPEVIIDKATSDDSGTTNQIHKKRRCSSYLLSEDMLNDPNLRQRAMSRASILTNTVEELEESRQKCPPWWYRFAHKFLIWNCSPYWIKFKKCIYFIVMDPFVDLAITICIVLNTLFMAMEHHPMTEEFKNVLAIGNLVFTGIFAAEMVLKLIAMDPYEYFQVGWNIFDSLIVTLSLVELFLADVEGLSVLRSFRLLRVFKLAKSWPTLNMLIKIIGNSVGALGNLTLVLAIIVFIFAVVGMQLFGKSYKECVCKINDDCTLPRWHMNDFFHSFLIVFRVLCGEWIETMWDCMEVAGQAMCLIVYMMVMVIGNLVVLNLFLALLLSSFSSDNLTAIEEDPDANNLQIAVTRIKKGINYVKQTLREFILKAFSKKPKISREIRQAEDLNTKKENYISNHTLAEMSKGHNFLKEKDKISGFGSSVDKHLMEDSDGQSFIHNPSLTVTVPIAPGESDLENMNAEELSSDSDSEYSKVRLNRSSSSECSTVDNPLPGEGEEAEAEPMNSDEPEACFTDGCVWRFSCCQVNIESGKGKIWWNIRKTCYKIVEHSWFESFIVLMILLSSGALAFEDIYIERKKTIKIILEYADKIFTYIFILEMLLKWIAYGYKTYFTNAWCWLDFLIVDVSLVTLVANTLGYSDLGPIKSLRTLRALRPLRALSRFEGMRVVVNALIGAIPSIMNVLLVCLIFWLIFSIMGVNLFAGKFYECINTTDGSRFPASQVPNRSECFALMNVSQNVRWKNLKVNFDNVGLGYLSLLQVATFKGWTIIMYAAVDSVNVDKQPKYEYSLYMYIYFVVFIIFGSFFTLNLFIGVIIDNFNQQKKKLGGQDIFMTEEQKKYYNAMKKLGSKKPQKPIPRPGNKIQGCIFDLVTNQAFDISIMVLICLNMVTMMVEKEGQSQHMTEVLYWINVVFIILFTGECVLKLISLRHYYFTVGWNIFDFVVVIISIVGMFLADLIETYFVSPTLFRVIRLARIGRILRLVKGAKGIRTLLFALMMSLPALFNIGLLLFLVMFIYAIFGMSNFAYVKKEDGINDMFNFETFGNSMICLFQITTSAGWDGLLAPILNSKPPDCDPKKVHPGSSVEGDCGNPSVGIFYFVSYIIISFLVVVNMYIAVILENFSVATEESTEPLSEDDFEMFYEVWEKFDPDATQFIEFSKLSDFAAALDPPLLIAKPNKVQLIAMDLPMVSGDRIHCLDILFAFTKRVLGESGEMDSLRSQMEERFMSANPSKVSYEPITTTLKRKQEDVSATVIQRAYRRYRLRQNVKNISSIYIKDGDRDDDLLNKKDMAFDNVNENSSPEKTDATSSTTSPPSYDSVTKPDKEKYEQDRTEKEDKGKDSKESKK

Compound | pIC50
COc1cc(CC2CCCCC2)c(F)cc1-n1c(=O)ccc2cc(S(=O)(=O)Nc3cccnn3)ccc21 [Example 1112, 1-(4-(cyclohexylmethyl)-5-fluoro-2-methoxyphenyl)-2-oxo-N-3-pyridazinyl-1,2-dihydro-6-quinolinesulfonamide] | 7.60
COc1cc(-c2cccc(C)c2)ccc1-n1c(=O)ccc2cc(S(=O)(=O)Nc3ncco3)ccc21 [Example 1113, 1-(3-methoxy-3′-methyl-4-biphenylyl)-N-1,3-oxazol-2-yl-2-oxo-1,2-dihydro-6-quinolinesulfonamide] | 7.36
COc1cc(-c2cccc(C)c2)c(F)cc1-n1c(=O)ccc2cc(S(=O)(=O)Nc3ncon3)ccc21 [Example 1114, 1-(2-fluoro-5-methoxy-3′-methyl-4-biphenylyl)-N-1,2,4-oxadiazol-3-yl-2-oxo-1,2-dihydro-6-quinolinesulfonamide] | 7.46
COc1cc(-c2cccc(C)c2)ccc1-n1c(=O)ccc2cc(S(=O)(=O)Nc3ncccn3)ccc21 [Example 1117, 1-(3-methoxy-3′-methyl-4-biphenylyl)-2-oxo-N-2-pyrimidinyl-1,2-dihydro-6-quinolinesulfonamide] | 7.23
COc1cc(-c2cccc(C)c2)ccc1-n1c(=O)ccc2cc(S(=O)(=O)Nc3ncc(F)cn3)ccc21 [Example 1119, N-(5-fluoro-2-pyrimidinyl)-1-(3-methoxy-3′-methyl-4-biphenylyl)-2-oxo-1,2-dihydro-6-quinolinesulfonamide] | 7.40
COc1cc(CC2CCOCC2)c(F)cc1-n1c(=O)ccc2cc(S(=O)(=O)Nc3ccon3)ccc21 [Example 1121, 1-(5-fluoro-2-methoxy-4-(tetrahydro-2H-pyran-4-ylmethyl)phenyl)-N-3-isoxazolyl-2-oxo-1,2-dihydro-6-quinolinesulfonamide] | 6.16
COc1cc(C#CC(C)(C)C)c(F)cc1-n1c(=O)ccc2cc(S(=O)(=O)Nc3ccon3)ccc21 [Example 1122, 1-(4-(3,3-dimethyl-1-butyn-1-yl)-5-fluoro-2-methoxyphenyl)-N-3-isoxazolyl-2-oxo-1,2-dihydro-6-quinolinesulfonamide] | 7.10

More lines, now with the values ahead:

pIC50 | Compound
7.06 | COc1cc(CC2CCCCC2)c(F)cc1-n1c(=O)ccc2cc(S(=O)(=O)Nc3ncc(F)cn3)ccc21 [Example 1111, 1-(4-(cyclohexylmethyl)-5-fluoro-2-methoxyphenyl)-N-(5-fluoro-2-pyrimidinyl)-2-oxo-1,2-dihydro-6-quinolinesulfonamide]
7.09 | COc1cc(CC2CCCCC2)c(F)cc1-n1c(=O)ccc2cc(S(=O)(=O)Nc3ccncn3)ccc21 [Example 1115, 1-(4-(cyclohexylmethyl)-5-fluoro-2-methoxyphenyl)-2-oxo-N-4-pyrimidinyl-1,2-dihydro-6-quinolinesulfonamide]
7.52 | COc1cc(CC2CCCCC2)c(F)cc1-n1c(=O)ccc2cc(S(=O)(=O)Nc3cnccn3)ccc21 [Example 1116, 1-(4-(cyclohexylmethyl)-5-fluoro-2-methoxyphenyl)-2-oxo-N-2-pyrazinyl-1,2-dihydro-6-quinolinesulfonamide]
5.83 | COc1cc(C[C@H]2CCCOC2)c(F)cc1-n1c(=O)ccc2cc(S(=O)(=O)Nc3ccon3)ccc21 [Example 1118, 1-(5-fluoro-2-methoxy-4-((3R)-tetrahydro-2H-pyran-3-ylmethyl)phenyl)-N-3-isoxazolyl-2-oxo-1,2-dihydro-6-quinolinesulfonamide, 1-(5-fluoro-2-methoxy-4-((3S)-tetrahydro-2H-pyran-3-ylmethyl)phenyl)-N-3-isoxazolyl-2-oxo-1,2-dihydro-6-quinolinesulfonamide]
6.97 | COc1cc(-c2cccc(C)c2)ccc1-n1c(=O)ccc2cc(S(=O)(=O)Nc3cccnn3)ccc21 [Example 1120, 1-(3-methoxy-3′-methyl-4-biphenylyl)-2-oxo-N-3-pyridazinyl-1,2-dihydro-6-quinolinesulfonamide]
